Values quoted from earlier work, collected in US6849254B1, “HCV combination therapy” (Schering Corporation, priority 1999, dated 2005).

Assays:
[1] = test system: CD4 levels; settings: HIV patients; higher doses; Phase I/II clinical trials (PharmaProjects)
[2] = for Potency of 1 mg in IU of Vitamin E: per 1 mg
[3] = test system: chronic childhood cholestasis; settings: 20-25 IU/kg/day (Sokool et al.)

## CC(C)(Sc1cc(C(C)(C)C)c(O)c(C(C)(C)C)c1)Sc1cc(C(C)(C)C)c(O)c(C(C)(C)C)c1 [Panavia, 4,4′-isopropylidenedithiobis-2,6-di-t-butylphenol]
[1]
  CD4 levels: stablized or slightly stabilized CD4 levele

## Cc1c(C)c2c(c(C)c1O)CC[C@@](C)(CCC[C@H](C)CCC[C@H](C)CCCC(C)C)O2 [d-alpha tocopherol]
[2]
  Potency of 1 mg in IU of Vitamin E: 1.49 IU

## CC(=O)Oc1c(C)c(C)c2c(c1C)CC[C@@](C)(CCC[C@H](C)CCC[C@H](C)CCCC(C)C)O2 [d-alpha tocopheryl acetate]
[2]
  Potency of 1 mg in IU of Vitamin E: 1.36 IU

## Cc1c(C)c2c(c(C)c1OC(=O)CCC(=O)O)CC[C@@](C)(CCC[C@H](C)CCC[C@H](C)CCCC(C)C)O2 [d-alpha tocopheryl succinate]
[2]
  Potency of 1 mg in IU of Vitamin E: 1.21 IU

## CC(=O)Oc1c(C)c(C)c2c(c1C)CC[C@@](C)(CCC[C@H](C)CCC[C@H](C)CCCC(C)C)O2 [di-alpha tocopheryl acetate]
[2]; per one IU of Vitamin E
  Amount equivalent to one IU of Vitamin E: 1 mg

## d-alpha-tocopheryl polyethylene glycol 1000 succinate [Vitamin E-TPGS]
[3]
  Safety and efficacy in chronic childhood cholestasis: appears to be safe and effective
